For 73 compounds, viability results are on record in the supplement of paper PMC6723410.

Each structure is given as a SMILES string.

The test system of one test is GUMC-403. As to the kind of experiment: viability at highest tested concentration (max response) relative to DMSO (% of DMSO control); higher = less cytotoxic. To be noted: library / dose series: MIPE library, 11-point 1:3 dilution; top concentration 46.1 µM; 48 h. In short, it runs like this:
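Viability at the highest tested concentration is given relative to vehicle control. For this, conditionally reprogrammed patient-derived GUMC-403 papilloma cells at 700/well in 1536-well plates were exposed to 23 nL of pinned compound for 48 h. Luminescence from CellTiter-Glo was read on a ViewLux and scaled between empty wells (0%) and vehicle wells (100%).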
Take `N[S+]([O-])(=O)C1=C(Cl)C=C2\N=C/N[S+]([O-])(=O)C2=C1`: the viability worked out at 127.

With `C[C@H]1C[C@H]2[C@@H]3CCC4=CC(=O)C=C[C@]4(C)[C@H]3C(=O)C[C@]2(C)[C@@]1(O)C(=O)CO`, the viability amounted to 104.

`CN(C)C(=O)c1ccc([S+](=O)([O-])c2ccc(NC(=O)[C@@](C)(O)C(F)(F)F)c(Cl)c2)cc1` displayed a viability of 113.

`Cc1cccc(Nc2nc(-c3ccncc3)cs2)c1` came in with a viability of 109.

On to `NC(=O)c1ccc(N(C(N)=O)c2c(F)cccc2F)nc1-c1ccc(F)cc1F`, for which the viability stood at 109.

Compound `CN(C)CCOC(c1ccccc1)c1ccccc1` registered a viability of 120.

For `CCc1ccc(C(=O)Nc2cc(CN3CCN(C)CC3)cc(C(F)(F)F)c2)cc1C#Cc1cnc2ccnn2c1`, the viability was 119.

With `CC1CCC(C(=O)N(c2cc(C#CC(C)(C)C)sc2C(=O)O)C2CCC(O)CC2)CC1` (stereo not drawn), the viability was 106.

`Cn1cc(-c2ccc3nnc(C(F)(F)c4ccc5ncccc5c4)n3n2)cn1` yielded a viability of 110.

Turning to `COc1cc2cc(c1Cl)N(C)C(=O)C[C@H](OC(=O)C(C)C)[C@]1(C)O[C@@H]1[C@H](C)[C@@H]1C[C@@](O)(NC(=O)O1)[C@H](OC)/C=C/C=C(\C)C2`, the viability came out at 122.

As for `Fc1ccc([C@@H]2CCNC[C@H]2COc2ccc3c(c2)OCO3)cc1`, the viability was 97.2.

With `CC(C(C)N1CC(=O)NC(=O)C1)N1CC(=O)NC(=O)C1` (stereo not drawn), the viability came to 109.

On to `Cc1cc(C[S+](=O)([O-])c2ccccc2)cc(OCc2ccc(CN3CCC[C@@H]3CO)cc2)c1`, for which the viability came to 116.

In turn, `COc1ccc2c(c1OC)CN1CCc3cc4c(cc3C1C2)OCO4` (stereo not drawn) yielded a viability of 121.

In turn, `CCOC(=O)N[C@@H]1CC[C@@H]2[C@@H](C1)C[C@H]1C(=O)O[C@H](C)[C@H]1[C@H]2/C=C/c1ccc(-c2cccc(F)c2)cn1` gave a viability of 123.

As to `N#Cc1cc(NC(=O)Nc2nnc(-c3ccncc3)s2)ccc1-c1cn[nH]c1`, the viability worked out at 101.

In turn, `CN(C)Cc1ccc(-c2nc3cccc4c3n2CCNC4=O)cc1` had a viability of 88.8.

Compound `Cc1cnc(NC(=O)Nc2cc(Br)c(C)cc2OC[C@@H]2CNCCO2)cn1` gave a viability of 110.

As to `C[C@]12CC[C@H]3[C@@H](CCC4=CC(=O)CC[C@@H]43)[C@@H]1CC[C@@H]2OC(=O)CCc1ccccc1`, the viability worked out at 118.

The compound `O=c1[nH]cnc2c1ncn2[C@H]1CC[C@@H](CO)O1` gave a viability of 144.

Take `COc1ccc([S+](=O)([O-])N(C(C)=O)c2ccccc2/C=C/c2cc[n+]([O-])cc2)cc1`: the viability worked out at 60.2.

The compound `CCOC(=O)[C@H]1O[C@@H]1C(=O)N[C@@H](CC(C)C)C(=O)NCCC(C)C` yielded a viability of 109.

In turn, `N=C(CCSCc1csc(N=C(N)N)n1)N[S+](N)(=O)[O-]` came in with a viability of 124.

The compound `C=CC(=O)N1CCC[C@@H](n2nc(-c3ccc(Oc4ccccc4)cc3)c3c(N)ncnc32)C1` returned a viability of 83.3.

In turn, `CO[C@H]1O[C@@H]2O[C@@]3(C)CC[C@H]4[C@H](C)CC[C@@H]([C@H]1C)[C@@]24OO3` came in with a viability of 116.

As for `COc1cc(Cl)cn2c(-c3cccc(NC4CNC4)n3)cnc12`, the viability is 133.

In turn, `CNC(=O)c1c(F)cccc1Nc1nc(Nc2cc3c(cc2OC)CCN3C(=O)CN(C)C)nc2[nH]ccc12` registered a viability of 84.8.

Compound `COc1c(Cl)cc2c([nH]c3cnccc32)c1NC(=O)c1cccnc1C` displayed a viability of 96.7.

On to `CC[C@H](CO)Nc1nc(NCc2ccccc2)c2ncn(C(C)C)c2n1`, for which the viability was found to be 42.6.

For the compound `CCOc1cc(N2CCC(O)CC2)ccc1Nc1ncc2c(n1)N(C)c1ccccc1C(=O)N2C`, the viability stood at 89.8.

`Cc1nnc(C(C)C)n1[C@@H]1C[C@H]2CC[C@@H](C1)N2CC[C@H](NC(=O)C1CCC(F)(F)CC1)c1ccccc1` had a viability of 140.

For the compound `COC1=C2OC(=O)\C=C/C2=CC3=C1OC=C3`, the viability is 102.

For `N#Cc1c(N(CC(=O)[O-])CC(=O)[O-])sc(C(=O)[O-])c1CC(=O)[O-].O.O.O.O.O.O.O.[Sr+2].[Sr+2]`, the viability is 112.

As to `CC\1=C(C(=O)N(\C=C1)C2=CC=C(C=C2)C3=NC=CO3)/C4=CC5=CN=C(N)N=C5C=C4`, the viability was 79.7.

As for `CN(C/C=C/C#CC(C)(C)C)Cc1cccc2ccccc12`, the viability was 123.

With `Oc1ccc2c3c1O[C@H]1c4[nH]c5c(c4C[C@@]4(O)[C@@H](C2)N(CC2CC2)CC[C@]314)C[C@@]1(O)[C@H]2Cc3ccc(O)c4c3[C@@]1(CCN2CC1CC1)[C@H]5O4`, the viability came out at 142.

In the case of `Clc1ccc(C2(c3ccc(-c4cn[nH]c4)cc3)CCNCC2)cc1`, the viability stood at 59.9.

In turn, `O=C(NCC1CN(c2ccc(N3CCOCC3=O)cc2)C(=O)O1)c1ccc(Cl)s1` (stereo not drawn) had a viability of 127.

Compound `CN(C)CCCNC(=O)c1ccc(-c2cc(O)c3ncccc3c2)cc1` registered a viability of 120.

Turning to `Nc1ncnc2ccccc12`, the viability came out at 127.

Take `CN(CCOc1ccc(CC2SC(=O)NC2=O)cc1)c1ccccn1` (stereo not drawn): the viability worked out at 118.

For `N#C/C(C(=O)c1ccc(Cl)cc1Cl)=C1/NC(=O)c2ccc(Cl)cc2N1`, the viability was 100.

Compound `Cc1ccc(Nc2nccc(N(C)c3ccc4c(C)n(C)nc4c3)n2)cc1[S+](N)(=O)[O-]` displayed a viability of 117.

Turning to `CCc1cccc2c3c([nH]c12)C(CC)(CC(=O)O)OCC3` (stereo not drawn), the viability was 132.

As for `COc1cc(C(C)C)c(Oc2cnc(NC(CO)CO)nc2N)cc1I`, the viability stood at 115.

The compound `CCCNC(=O)[C@H]1O[C@@H]1C(=O)N[C@H](C(=O)N1CCC[C@H]1C(=O)OC)C(C)CC` (stereo partly drawn) showed a viability of 109.

`CCCCCCCN(CC)CCCC(O)c1ccc(NS(C)(=O)=O)cc1.CCCCCCCN(CC)CCCC(O)c1ccc(NS(C)(=O)=O)cc1.O=C(O)/C=C/C(=O)O` (stereo not drawn) came in with a viability of 106.

With `C=CC1=C(C(=O)O)N2C(=O)[C@@H](NC(=O)/C(=N\O)c3csc(N)n3)[C@H]2SC1`, the viability worked out at 130.

`O=[S+]([O-])(c1cccc2cnccc12)N1CCCNCC1` had a viability of 128.

`OC[C@H]1O[C@H](C[C@@H]1O)N2/C=C(C(=O)NC2=O)/C(F)(F)F` returned a viability of 103.

The compound `COc1cc2c(Nc3ccc(Cl)c(Cl)c3F)ncnc2cc1OCC1C[C@@H]2CN(C)C[C@@H]2C1` (stereo partly drawn) yielded a viability of 12.5.

On to `COc1ccccc1OCC(O)CN1CCN(CC(=O)Nc2c(C)cccc2C)CC1` (stereo not drawn), for which the viability was 130.

With `CNC[C@H](O)[C@@H](O)[C@H](O)[C@H](O)CO`, the viability was 136.

With `CCOC(=O)N1CCN(/[N+]([O-])=N/Oc2cc(O/N=[N+](\[O-])N3CCN(C(=O)OCC)CC3)c([N+](=O)[O-])cc2[N+](=O)[O-])CC1`, the viability was 118.

Turning to `O=C(O)C1=NC(C(=O)O)CC(/C=C/N2c3cc(O)c(OC4OC(CO)C(O)C(O)C4O)cc3CC2C(=O)O)=C1` (stereo not drawn), the viability is 135.

Compound `O=C1\C=C(OC2=C(C=CC=C12)C3=CC=CC4=C3SC5=C4C=CC=C5)\N6CCOCC6` had a viability of 70.9.

Consider `CNC(=O)c1cc(COc2nnc(Nc3ccc(Cl)cc3)c3ccoc23)ccn1`, for which the viability turned out to be 113.

Compound `NC/1=N/C(=O)N(/C=C1)[C@H]2CC[C@@H](CO)O2` came in with a viability of 84.4.

In turn, `CO[C@@H]1C(N(C)C(=O)c2ccccc2)C[C@H]2O[C@]1(C)n1c3ccccc3c3c4c(c5c6ccccc6n2c5c31)C(=O)NC4=O` (stereo partly drawn) yielded a viability of 76.6.

The compound `Cc1noc(-c2ccc(CSCCC(=O)O)cc2)c1NC(=O)OC(C)c1ccccc1Cl` (stereo not drawn) showed a viability of 106.

`COC(=O)C1=C(C)NC(C)=C(C(=O)OCCN2CCN(C(c3ccccc3)c3ccccc3)CC2)C1c1cccc([N+](=O)[O-])c1.Cl.Cl` (stereo not drawn) returned a viability of 86.5.

For `CC(C)(N)C(=O)N[C@H](COCc1ccccc1)C(=O)N1CCC2(CC1)CN([S+](C)(=O)[O-])c1ccccc12`, the viability was determined as 103.

Turning to `COc1c(C)c2c(c(O)c1C/C=C(\C)CCC(=O)OCCN1CCOCC1)C(=O)OC2`, the viability is 112.

`NC(=O)N/N=C/c1ccc([N+](=O)[O-])o1` came in with a viability of 135.

Consider `CCCCCCCCCCCCCCCC(=O)OC[C@@H](NC(=O)C(Cl)Cl)[C@H](O)c1ccc([N+](=O)[O-])cc1`, for which the viability is 130.

The compound `O=[N+]([O-])c1cnc(Sc2nnc(O)n2-c2ccc3c(c2)OCCO3)s1` had a viability of 91.3.

In the case of `OC(=O)\C1=C\N(C2CC2)C3=CC(=C(F)C=C3C1=O)N4CCNCC4`, the viability came to 105.

`CNCc1ccc(-c2[nH]c3cc(F)cc4c3c2CCNC4=O)cc1` gave a viability of 93.2.

`Clc1ccc(C(Cn2ccnc2)OCc2ccc(Sc3ccccc3)cc2)c(Cl)c1` (stereo not drawn) returned a viability of 118.

Take `C\C1=N\N(C(=O)C1)C2=CC=CC=C2`: the viability amounted to 97.2.

The same test, now with this note: library / dose series: MIPE library, 11-point 1:3 dilution; top concentration 92.2 µM; 48 h.
Regarding `C[C@@H](NC1=CC=CC=C1C(O)=O)C/2=C/C(=C\N3C(=O)/C=C(\N=C23)N4CCOCC4)C`, the viability worked out at 34.9.

For `CC(=O)Oc1ccccc1C(=O)Nc1ncc([N+](=O)[O-])s1`, the viability is 82.2.

`CNC[C@H](O)c1ccc(O)c(O)c1`: the viability came to 104.
